The subject of the assay is BDF1 mice, P388 leukemia ip, median survival T/C. As to the kind of experiment: NCI In Vivo Anticancer Drug Screen. Data for tumor model P388 Leukemia (intraperitoneal) in B6D2F1 (BDF1) mice. As to conditions: endpoint: median survival time, higher = longer survival. In short, it runs like this:
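Each value expresses how treatment altered survival: treated-mouse outcome over vehicle-mouse outcome, both groups bearing the transplanted tumour.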

Where [1] appears, read: dose: 25.0 mg/kg/injection, schedule: Q01DX009 (ip), vehicle: saline with Tween-80.
Setting [2] is: dose: 50.0 mg/kg/injection, schedule: Q01DX009 (ip), vehicle: saline with Tween-80.
The mark [3] stands for this setting: dose: 100.0 mg/kg/injection, schedule: Q01DX009 (ip), vehicle: saline with Tween-80.
Setting [4] is: dose: 50.0 mg/kg/injection, schedule: Q04DX003 (ip), vehicle: saline with Tween-80.
[5] abbreviates: dose: 100.0 mg/kg/injection, schedule: Q04DX003 (ip), vehicle: saline with Tween-80.
Where [6] appears, read: dose: 200.0 mg/kg/injection, schedule: Q04DX003 (ip), vehicle: saline with Tween-80.
The mark [7] stands for this setting: dose: 50.0 mg/kg/injection, schedule: Q01DX009 (ip), vehicle: saline.
Setting [8] is: dose: 33.0 mg/kg/injection, schedule: Q04DX003 (ip), vehicle: saline with Tween-80.
Where [9] appears, read: dose: 12.5 mg/kg/injection, schedule: Q01DX009 (ip), vehicle: saline with Tween-80.

“And” between values parts separate entries of the source, which are not always exact repeats. Equal values may be shown once. Inconclusive results and toxic doses are left out.

With `CCOc1nc(N)c(C(N)=O)cc1C#N`, the T/C reads like this: under setting [1], 105 % of control; under setting [2], 110 % of control; (dose: 66.0 mg/kg/injection, schedule: Q01DX009 (ip), vehicle: saline with Tween-80) 92 % of control and 110 % of control; under setting [3], 150 % of control; (dose: 150.0 mg/kg/injection, schedule: Q01DX009 (ip), vehicle: saline with Tween-80) 88 % of control and 95 % of control.

As to `COc1cc2c3c(c1)/C(=N\N)CCN3CCC2`, the T/C runs as follows: under setting [1], 110 % of control; under setting [2], 110 % of control; under setting [4], 113 % of control; under setting [3], 100 % of control; under setting [5], 95 % of control; under setting [6], 100 % of control.

For `CC(=O)N(C)C(C(=O)N1CC(C)CC1C(=O)N(C)C1C(=O)NC(CC(C)C)C(=O)N2CC(C)CC2C(=O)NC(CC(C)C)C(=O)N(C)C(C(C)C)C(=O)N2CCCC2C(=O)N(C)C(CC(C)C)C(=O)NCC(=O)OC1C)C(C)C` (stereo not given), the T/C (dose: 37.5 mg/kg/injection, schedule: Q01DX009 (ip), vehicle: Klucel (hydroxypropylcellulose) (HPC)) was 107 % of control and the T/C (dose: 75.0 mg/kg/injection, schedule: Q01DX009 (ip), vehicle: Klucel (hydroxypropylcellulose) (HPC)) was 107 % of control.

Consider `Cn1ncc2cncnc21`, for which the T/C runs as follows: (dose: 100.0 mg/kg/injection, schedule: Q04DX003 (ip), vehicle: alcohol) 113 % of control; (dose: 200.0 mg/kg/injection, schedule: Q04DX003 (ip), vehicle: alcohol) 95 % of control; (dose: 400.0 mg/kg/injection, schedule: Q04DX003 (ip), vehicle: alcohol) 100 % of control.

On to `C=CC1CN2CCC1CC2C(O)c1ccnc2ccc(OC)cc12` (stereo not given), for which the T/C under setting [7] was 120 % of control; the T/C (dose: 100.0 mg/kg/injection, schedule: Q01DX009 (ip), vehicle: saline) is 95 % of control; the T/C (dose: 200.0 mg/kg/injection, schedule: Q01DX009 (ip), vehicle: saline) was 100 % of control.

In the case of `CN(C)C(CC(=O)c1ccccc1)C(=O)O` (stereo not given), where the note is “dose: 50.0 mg/kg/injection, schedule: Q04DX003 (ip), vehicle: saline sonified”, the T/C is 104 % of control.

As for `CCCN=C(N)c1ccc(NC(=O)c2ccc(C(=O)Nc3ccc(C(N)=NCCC)cc3)cc2)cc1`, the T/C runs as follows: (dose: 0.5 mg/kg/injection, schedule: Q04DX003 (ip), vehicle: saline with Tween-80) 115 % of control; (dose: 1.0 mg/kg/injection, schedule: Q04DX003 (ip), vehicle: saline with Tween-80) 120 % of control; (dose: 14.0 mg/kg/injection, schedule: Q04DX003 (ip), vehicle: saline with Tween-80) 163 % of control; (dose: 21.0 mg/kg/injection, schedule: Q04DX003 (ip), vehicle: saline with Tween-80) 163 % of control; under setting [8], 159 % of control and 200 % of control; under setting [4], 172 % of control and 204 % of control. Further, the T/C runs as follows: (dose: 75.0 mg/kg/injection, schedule: Q04DX003 (ip), vehicle: saline with Tween-80) 159 % of control; under setting [5], 190 % of control; under setting [6], 118 % of control.

In the case of `OC(CC(O)(C(F)(F)F)C(F)(F)F)c1cccc(C(F)(F)F)c1` (stereo not given), the T/C runs as follows: (dose: 100.0 mg/kg/injection, schedule: Q04DX003 (ip), vehicle: other) 100 % of control; (dose: 200.0 mg/kg/injection, schedule: Q04DX003 (ip), vehicle: other) 104 % of control; (dose: 400.0 mg/kg/injection, schedule: Q04DX003 (ip), vehicle: other) 95 % of control.

Regarding `CSc1cc(C)c(O)c(C)c1`, the T/C is 104 % of control (dose: 50.0 mg/kg/injection, schedule: Q01DX009 (ip), vehicle: other); 104 % of control (dose: 100.0 mg/kg/injection, schedule: Q01DX009 (ip), vehicle: other); 104 % of control (dose: 200.0 mg/kg/injection, schedule: Q01DX009 (ip), vehicle: other).

For `O=C1CN(Cc2ccccc2)CC(=O)N2C(c3ccccc3)CCCN12` (stereo not given), the T/C is 97 % of control (dose: 50.0 mg/kg/injection, schedule: Q01DX005 (ip), vehicle: saline with Tween-80); 87 % of control (dose: 100.0 mg/kg/injection, schedule: Q01DX005 (ip), vehicle: saline with Tween-80); 92 % of control (dose: 200.0 mg/kg/injection, schedule: Q01DX005 (ip), vehicle: saline with Tween-80).

In the case of `O=C1NC(=O)C2C3C=CC(C12)C1C2C(=O)NC(=O)C2C31` (stereo not given), the T/C is, setting by setting: under setting [9], 108 % of control; under setting [2], 168 % of control.

As for `C1CO[Te]2(O1)OCCO2`, the T/C is, setting by setting: (dose: 12.5 mg/kg/injection, schedule: Q04DX003 (ip), vehicle: saline with Tween-80) 97 % of control; (dose: 25.0 mg/kg/injection, schedule: Q04DX003 (ip), vehicle: saline with Tween-80) 88 % of control; under setting [4], 88 % of control.

As for `NC(=S)N/N=C\c1ncnc2ccccc12`, the T/C was 150 % of control (dose: 8.0 mg/kg/injection, schedule: Q01DX009 (ip), vehicle: saline with Tween-80); 150 % of control (dose: 12.0 mg/kg/injection, schedule: Q01DX009 (ip), vehicle: saline with Tween-80); 150 % of control (dose: 18.0 mg/kg/injection, schedule: Q01DX009 (ip), vehicle: saline with Tween-80).

Take `COc1cc(C=Nc2cccc(Cl)c2)ccc1N(CCCl)CCCl`: the T/C reads like this: (dose: 8.0 mg/kg/injection, schedule: Q04DX003 (ip), vehicle: saline with Tween-80) 195 % of control; under setting [9], 187 % of control; (dose: 16.0 mg/kg/injection, schedule: Q04DX003 (ip), vehicle: saline with Tween-80) 187 % of control; under setting [1], 187 % of control; under setting [8], 207 % of control; under setting [2], 95 % of control. Also, under setting [4], the T/C was 230 % of control.

In the case of `CN(C)N=Nc1cc(Cl)cc(C(N)=O)c1Cl`, the T/C runs as follows: under setting [9], 108 % of control; under setting [1], 104 % of control; under setting [2], 104 % of control; (dose: 88.0 mg/kg/injection, schedule: Q01DX009 (ip), vehicle: saline with Tween-80) 108 % of control; (dose: 177.0 mg/kg/injection, schedule: Q01DX009 (ip), vehicle: saline with Tween-80) 95 % of control; (dose: 266.0 mg/kg/injection, schedule: Q01DX009 (ip), vehicle: saline with Tween-80) 87 % of control.

With `CC(=O)Nc1c2sscc-2n(C)c1=O`, the T/C was 97 % of control (dose: 0.39 mg/kg/injection, schedule: Q01DX009 (ip), vehicle: saline with Tween-80) and 104 % of control (dose: 0.78 mg/kg/injection, schedule: Q01DX009 (ip), vehicle: saline with Tween-80).

On to `Cc1cc(O)c2c(c1)C(=O)C(c1c(C)cc3c(c1O)C(=O)C=CC3=O)=CC2=O`, for which the T/C is 89 % of control (dose: 1.25 mg/kg/injection, schedule: Q01DX009 (ip), vehicle: saline); 114 % of control (dose: 2.5 mg/kg/injection, schedule: Q01DX009 (ip), vehicle: saline); 102 % of control (dose: 5.0 mg/kg/injection, schedule: Q01DX009 (ip), vehicle: saline); 105 % of control and 116 % of control (dose: 10.0 mg/kg/injection, schedule: Q01DX009 (ip), vehicle: saline); 106 % of control (dose: 14.0 mg/kg/injection, schedule: Q01DX009 (ip), vehicle: saline); 116 % of control (dose: 22.0 mg/kg/injection, schedule: Q01DX009 (ip), vehicle: saline). Further, for the setting “dose: 35.0 mg/kg/injection, schedule: Q01DX009 (ip), vehicle: saline”, the T/C is 99 % of control.

Consider `O=C(CBr)Nc1nccs1`, for which the T/C was 100 % of control (dose: 1.56 mg/kg/injection, schedule: Q01DX009 (ip), vehicle: saline); 95 % of control (dose: 3.12 mg/kg/injection, schedule: Q04DX003 (ip), vehicle: saline); 97 % of control (dose: 6.25 mg/kg/injection, schedule: Q01DX009 (ip), vehicle: saline); 94 % of control and 102 % of control (dose: 6.25 mg/kg/injection, schedule: Q04DX003 (ip), vehicle: saline); 90 % of control (dose: 12.5 mg/kg/injection, schedule: Q01DX009 (ip), vehicle: saline); 91 % of control and 97 % of control (dose: 12.5 mg/kg/injection, schedule: Q04DX003 (ip), vehicle: saline). The T/C is 97 % of control (dose: 25.0 mg/kg/injection, schedule: Q01DX009 (ip), vehicle: saline); 91 % of control and 97 % of control and 100 % of control (dose: 25.0 mg/kg/injection, schedule: Q04DX003 (ip), vehicle: saline); 104 % of control under setting [7].

As for `CNC(=S)NC1C2CC3CC(C2)CC1C3` (stereo not given), the T/C is, setting by setting: under setting [2], 94 % of control; under setting [3], 94 % of control; (dose: 200.0 mg/kg/injection, schedule: Q01DX009 (ip), vehicle: saline with Tween-80) 94 % of control.
